Measured values reported in publication PMC3375340 (Journal of Medicinal Chemistry, 2012).
Values after ≈ are worked out from the molar mass of the structure shown.

Experiments:
M. tuberculosis MenA = M. tuberculosis MenA (Mycobacterium tuberculosis, UniProt P9WIP3); experiment: MenA enzyme inhibitory assay; assay type: biochemical; conditions: for IC50: MenA Inhibition IC50, Mtb MenA, dose-response of DMMK formation
[1] = system: M. bovis, M. intracellulare, and M. smegmatis; assay type: cell-based, Mycobacterium species
[2] = system: M. tuberculosis electron transport system; experiment: Oxygen consumption assay; assay type: cell-based; conditions: for electron transport system inhibition (conclusion): from oxygen consumption assay
M. tuberculosis H37Rv [3] = experiment: Microplate alamar blue assay; assay type: cell-based; conditions: Mycobacterium tuberculosis, read-out: MIC against Mtb (MABA)
M. bovis BCG = experiment: microbe, parasite or virus in culture; assay type: cell-based; conditions: Mycobacterium tuberculosis variant bovis BCG
[4] = system: M. intracellulare ATCC15984; experiment: MIC, Mycobacterium species panel; assay type: cell-based
in vitro = conditions: monkey
M. tuberculosis H37Rv [5] = experiment: MIC, Mycobacterium species panel; assay type: cell-based

Sequence of M. tuberculosis MenA (P9WIP3 whole entry): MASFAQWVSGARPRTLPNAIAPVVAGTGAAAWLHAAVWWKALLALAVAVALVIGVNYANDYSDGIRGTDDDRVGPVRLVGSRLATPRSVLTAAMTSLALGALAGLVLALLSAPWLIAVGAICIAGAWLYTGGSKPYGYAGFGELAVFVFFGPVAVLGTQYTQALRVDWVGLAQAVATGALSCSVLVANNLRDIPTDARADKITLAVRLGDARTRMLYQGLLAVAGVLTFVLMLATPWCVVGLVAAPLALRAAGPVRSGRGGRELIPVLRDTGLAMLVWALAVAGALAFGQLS

## CCCCCC[C@H](CN1CCC(COc2cccc(C(=O)c3ccc(Cl)cc3)c2)CC1)OC(N)=O [(R)-12, (R)-1-(4-((3-(4-chlorobenzoyl)phenoxy)methyl)piperidin-1-yl)octan-2-yl carbamate]
M. tuberculosis MenA; Mtb MenA IC50 comparison
  fold better MenA enzyme inhibitory activity compared to the alcohol (R)-11: 6 fold
[1]
  killing concentration, other Mycobacterium species: 3.0~6.5 μg/mL
[2]
  electron transport system inhibition (conclusion): very weak (or are not) electron transport system inhibitors

## CCCCCC[C@H](CN1CCC(COc2cccc(C(=NOC)c3ccc(Cl)cc3)c2)CC1)OC(N)=O [(R)-13, (R)-1-(4-((3-((4-Chlorophenyl)(methoxyimino)methyl)phenoxy)methyl)piperidin-1-yl)octan-2-yl carbamate]
M. tuberculosis H37Rv [3]
  MIC: 2.31 µg/mL (≈ 4.36 µM)
M. tuberculosis MenA
  IC50: 1.2 µM
M. bovis BCG
  MIC: 2.95 µg/mL (≈ 5.56 µM)
[4]
  MIC: 6.5 µg/mL (≈ 12.3 µM)
[1]
  killing concentration, other Mycobacterium species: 3.0~6.5 μg/mL
In vitro
  selectivity ratio: > 10

## CCCCCCC[C@@H](O)c1cccc(CN2CCC(COc3cccc(C(=NOC)c4ccc(Cl)cc4)c3)CC2)c1 [(R)-15, (R)-(4-chlorophenyl)(3-((1-(3-(1-hydroxyoctyl)benzyl)piperidin-4-yl)methoxy)phenyl)methanone O-methyl oxime]
M. tuberculosis MenA
  IC50: 15 µM

## CCCCCC[C@H](CN1CCC(COc2ccc(C(=O)c3ccc(Cl)cc3)c(Cl)c2)CC1)OC(N)=O [(R)-17, (R)-1-(4-((3-chloro-4-(4-chlorobenzoyl)phenoxy)methyl)piperidin-1-yl)octan-2-yl carbamate]
[2]
  electron transport system inhibition (conclusion): very weak (or are not) electron transport system inhibitors

## CCCCCCC[C@@H](O)c1cccc(CN2CCC(COc3ccc(C(=NOC)c4ccc(Cl)cc4)c(Cl)c3)CC2)c1 [(R)-20, (R)-(2-Chloro-4-((1-(3-(1-hydroxyoctyl)benzyl)piperidin-4-yl)methoxy)phenyl)(4-chlorophenyl) methanone O-methyl oxime]
M. tuberculosis MenA
  IC50: 15 µM

## CCCCCCC[C@H](O)c1cccc(CN2CCC(COc3cccc(C(=O)c4ccc(Cl)cc4)c3)CC2)c1 [(S)-3, (S)-(4-chlorophenyl)(3-((1-(3-(1-hydroxyoctyl)benzyl)piperidin-4-yl)methoxy)phenyl) methanone]
M. tuberculosis MenA
  IC50: 20 µM

## CCCCCC[C@@H](CN1CCC(COc2ccc(C(=O)c3ccc(Cl)cc3)c(Cl)c2)CC1)OC(N)=O [(S)-17]
[2]; Mtb, 37 °C, 22h, above the MIC
  concentration showing decolorization of methylene blue: 12.5 µg/mL

## CCCCCCC[C@H](O)c1cccc(CN2CCC(COc3ccc(C(=NOC)c4ccc(Cl)cc4)c(Cl)c3)CC2)c1 [(S)-20, (S)-(2-Chloro-4-((1-(3-(1-hydroxyoctyl)benzyl)piperidin-4-yl)methoxy)phenyl)(4-chlorophenyl) methanone O-methyl oxime]
M. tuberculosis MenA
  IC50: 20 µM

## NNC(=O)c1ccncc1 [INH, isoniazid]
M. tuberculosis H37Rv [5]
  MIC: 0.24 µg/mL (≈ 1.75 µM)
